Laboratory results from patent publication US20240124412A1, “IKAROS ZINC FINGER FAMILY DEGRADERS AND USES THEREOF” (Gilead Sciences, Inc., priority 2021, published 2024).

Legend:
IKZF2 = target: T1, IKZF2 (Homo sapiens, UniProt Q96SW2+Q9UKS7); experiment: HiBiT protein tagging assay, in vitro IKZF2 degradation (HEK293); format: cell-based; details: HEK293, 18-24 hr incubation, normalized to DMSO control; for Dmax: HEK293, HiBiT assay, read-out: IKZF2 Dmax (maximum degradation at the highest concentration tested); for DC50: HiBiT assay, read-out: IKZF2 EC50
T1 construct: expressed in transfected cells
T1 sequence (Q9UKS7 1-500 isoform Q9UKS7-2): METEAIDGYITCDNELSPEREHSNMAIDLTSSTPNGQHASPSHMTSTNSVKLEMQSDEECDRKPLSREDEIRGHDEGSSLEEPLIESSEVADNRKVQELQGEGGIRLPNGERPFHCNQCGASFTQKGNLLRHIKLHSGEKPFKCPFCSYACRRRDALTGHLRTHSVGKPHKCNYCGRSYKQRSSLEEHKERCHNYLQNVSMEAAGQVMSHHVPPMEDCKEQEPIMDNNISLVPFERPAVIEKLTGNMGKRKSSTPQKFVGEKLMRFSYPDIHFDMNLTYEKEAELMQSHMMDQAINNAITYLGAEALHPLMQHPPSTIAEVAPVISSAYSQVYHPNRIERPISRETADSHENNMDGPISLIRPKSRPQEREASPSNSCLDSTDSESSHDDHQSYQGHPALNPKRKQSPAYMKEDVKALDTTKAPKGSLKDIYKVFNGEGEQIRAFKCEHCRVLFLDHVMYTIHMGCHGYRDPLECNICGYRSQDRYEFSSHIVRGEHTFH
T1 sequence (Q96SW2 whole entry): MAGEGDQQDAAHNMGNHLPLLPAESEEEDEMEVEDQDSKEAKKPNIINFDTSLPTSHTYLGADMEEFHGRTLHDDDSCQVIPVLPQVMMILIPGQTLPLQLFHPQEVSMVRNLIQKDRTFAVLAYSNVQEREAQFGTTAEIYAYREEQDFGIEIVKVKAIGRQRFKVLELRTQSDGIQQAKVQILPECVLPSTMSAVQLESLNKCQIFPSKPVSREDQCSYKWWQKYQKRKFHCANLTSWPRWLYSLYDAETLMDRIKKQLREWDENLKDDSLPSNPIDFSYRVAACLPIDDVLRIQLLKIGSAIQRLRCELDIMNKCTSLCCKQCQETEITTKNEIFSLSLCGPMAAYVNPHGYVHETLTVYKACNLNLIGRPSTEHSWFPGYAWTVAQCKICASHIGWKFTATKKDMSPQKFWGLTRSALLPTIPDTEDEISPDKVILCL
T1 sequence (Q16531 whole entry partner): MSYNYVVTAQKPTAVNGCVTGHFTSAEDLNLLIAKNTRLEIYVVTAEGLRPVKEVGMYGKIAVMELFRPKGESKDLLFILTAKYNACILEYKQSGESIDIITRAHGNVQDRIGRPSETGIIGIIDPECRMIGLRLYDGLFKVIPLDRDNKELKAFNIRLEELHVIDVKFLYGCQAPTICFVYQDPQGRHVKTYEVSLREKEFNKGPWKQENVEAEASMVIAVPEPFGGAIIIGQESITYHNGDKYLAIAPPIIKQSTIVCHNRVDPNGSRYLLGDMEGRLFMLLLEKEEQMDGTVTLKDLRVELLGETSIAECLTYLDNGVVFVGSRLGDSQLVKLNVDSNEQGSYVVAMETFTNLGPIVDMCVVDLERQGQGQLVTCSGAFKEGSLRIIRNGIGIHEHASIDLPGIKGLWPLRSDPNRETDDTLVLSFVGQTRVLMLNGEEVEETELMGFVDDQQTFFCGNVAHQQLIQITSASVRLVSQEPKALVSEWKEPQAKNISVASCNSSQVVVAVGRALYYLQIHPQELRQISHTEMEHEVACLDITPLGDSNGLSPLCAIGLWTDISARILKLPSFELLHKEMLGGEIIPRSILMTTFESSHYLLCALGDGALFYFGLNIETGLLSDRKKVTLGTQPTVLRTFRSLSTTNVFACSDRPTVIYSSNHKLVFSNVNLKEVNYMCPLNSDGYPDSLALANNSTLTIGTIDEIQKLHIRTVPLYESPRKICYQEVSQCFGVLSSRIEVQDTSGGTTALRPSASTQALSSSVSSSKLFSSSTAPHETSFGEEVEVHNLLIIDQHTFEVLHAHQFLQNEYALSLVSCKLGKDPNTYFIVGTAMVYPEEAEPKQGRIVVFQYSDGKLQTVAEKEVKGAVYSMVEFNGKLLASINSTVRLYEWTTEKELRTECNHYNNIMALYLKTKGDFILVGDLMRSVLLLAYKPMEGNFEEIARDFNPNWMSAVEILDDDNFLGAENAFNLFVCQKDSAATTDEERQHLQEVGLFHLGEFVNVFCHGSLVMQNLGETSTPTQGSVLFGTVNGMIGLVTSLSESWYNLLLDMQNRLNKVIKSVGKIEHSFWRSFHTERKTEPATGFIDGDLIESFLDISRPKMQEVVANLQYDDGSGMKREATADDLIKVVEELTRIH
How it was run: (§1)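 Flp-In T-REx HEK293 pools stably expressing C-terminal HiBiT-tagged IKZF1 or IKZF2 were induced overnight with 1 μg/ml doxycycline. Cells were then treated with serially diluted compound for 18-24 hr at 37 °C and read by Nano-Glo lytic luminescence. Data were normalized to 0.5% DMSO as POC; EC50 and Dmax (maximum degradation at highest concentration tested) reported.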

IKZF1 = target: T2, IKZF1 (Homo sapiens, UniProt Q13422+Q96SW2); experiment: HiBiT protein tagging assay, in vitro IKZF1 degradation (HEK293); format: cell-based; details: HEK293, 18-24 hr incubation, normalized to DMSO control; for Dmax: read-out: IKZF1 Dmax (maximum degradation at the highest concentration tested); for DC50: read-out: IKZF1 EC50
T2 construct: expressed in transfected cells
T2 sequence (Q13422 whole entry): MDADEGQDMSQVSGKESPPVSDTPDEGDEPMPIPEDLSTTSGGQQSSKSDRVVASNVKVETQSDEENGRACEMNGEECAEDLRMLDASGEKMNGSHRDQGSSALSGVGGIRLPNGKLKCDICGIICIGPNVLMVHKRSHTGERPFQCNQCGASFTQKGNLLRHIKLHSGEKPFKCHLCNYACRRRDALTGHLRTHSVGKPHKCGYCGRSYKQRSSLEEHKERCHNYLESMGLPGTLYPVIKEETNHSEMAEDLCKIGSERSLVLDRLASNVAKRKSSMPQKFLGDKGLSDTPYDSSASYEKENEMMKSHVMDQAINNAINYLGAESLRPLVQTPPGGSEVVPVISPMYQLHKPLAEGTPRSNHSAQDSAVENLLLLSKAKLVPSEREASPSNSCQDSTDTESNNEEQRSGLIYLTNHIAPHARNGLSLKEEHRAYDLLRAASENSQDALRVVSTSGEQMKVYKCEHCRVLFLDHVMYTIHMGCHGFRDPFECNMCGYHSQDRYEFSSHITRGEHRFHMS
T2 sequence (Q96SW2 whole entry): as the sequence (Q96SW2 whole entry) above
T2 sequence (Q16531 whole entry partner): as the sequence (Q16531 whole entry partner) above
How it was run: as §1

Dmax (IKZF2)	DC50 (IKZF2)	Dmax (IKZF1)	DC50 (IKZF1)	SMILES
72%	0.042 µM	82%	0.023 µM	O=C1CCC(N2Cc3cc(CNC4CCC(Oc5ccccc5)CC4)ccc3C2=O)C(=O)N1 (stereo not shown) [Example 104]
55%	0.178 µM		> 10 µM	O=C1CCC(N2Cc3cc(CN[C@@H]4CC5CCC4CC5)ccc3C2=O)C(=O)N1 (stereo partly drawn) [Example 94, 3-(5-((((R)-bicyclo[2.2.2]octan-2-yl)amino)methyl)-1-oxoisoindolin-2-yl)piperidine-2,6-dione]
22%	0.472 µM		> 10 µM	O=C1CCC(N2Cc3cc(CN[C@H](CO)c4ccccc4)ccc3C2=O)C(=O)N1 (stereo partly shown) [Example 52]
49%	0.21 µM	86%	0.036 µM	O=C1CCC(N2Cc3cc(CNCC4CCc5ccccc5C4)ccc3C2=O)C(=O)N1 (stereo not shown) [Example 23, 3-(1-oxo-5-((((1,2,3,4-tetrahydronaphthalen-2-yl)methyl)amino)methyl)isoindolin-2-yl)piperidine-2,6-dione]
74%	0.055 µM	62%	0.05 µM	O=C1CCC(N2Cc3cc(CNC4CCC5(CCC5)CC4)ccc3C2=O)C(=O)N1 (stereo not shown) [Example 59]
83%	0.058 µM	80%	0.019 µM	O=C1CCC(N2Cc3cc(CNC4CCN(c5ccccc5)CC4)ccc3C2=O)C(=O)N1 (stereo not shown) [Example 2, 3-(1-oxo-5-(((1-phenylpiperidin-4-yl)amino)methyl)isoindolin-2-yl)piperidine-2,6-dione]
92%	0.078 µM	31%	0.246 µM	O=C1CCC(N2Cc3cc(CN[C@@H]4CCCC[C@H]4OCc4ccccc4Cl)ccc3C2=O)C(=O)N1 (stereo partly shown) [Example 145]
32%	0.24 µM	72%	0.038 µM	O=C1CCC(N2Cc3cc(CNCCc4ccccc4Cl)ccc3C2=O)C(=O)N1 (stereo not shown) [Example 44, 3-(5-(((2-chlorophenethyl)amino)methyl)-1-oxoisoindolin-2-yl)piperidine-2,6-dione]
48%	0.23 µM	65%	0.031 µM	O=C1CCC(N2Cc3cc(CN[C@H]4CCOc5ccccc54)ccc3C2=O)C(=O)N1 (stereo partly drawn) [Example 17, 3-(5-((((S)-chroman-4-yl)amino)methyl)-1-oxoisoindolin-2-yl)piperidine-2,6-dione]
93%	0.029 µM	94%	0.005 µM	C[C@H](c1ccccc1)N1CCC[C@@H](NCc2ccc3c(c2)CN(C2CCC(=O)NC2=O)C3=O)C1 (stereo partly drawn) [Example 28, 3-(1-oxo-5-((((R)-1-((R)-1-phenylethyl)piperidin-3-yl)amino)methyl)isoindolin-2-yl)piperidine-2,6-dione]
38%	1.2 µM		> 10 µM	O=C1CCC(N2Cc3cc(CN[C@@H]4CCCC[C@H]4O)ccc3C2=O)C(=O)N1 (stereo partly drawn) [Example 40, 3-(5-((((1R,2R)-2-hydroxycyclohexyl)amino)methyl)-1-oxoisoindolin-2-yl)piperidine-2,6-dione]
71%	1.3 µM		> 10 µM	O=C1CCC(N2Cc3cc(CN[C@@H]4CCC[C@H](O)C4)ccc3C2=O)C(=O)N1 (stereo partly shown) [Example 82]
70%	0.449 µM	38%	0.153 µM	O=C1CCC(N2Cc3cc(CN[C@@H]4CCCC[C@@H]4O)ccc3C2=O)C(=O)N1 (relative stereo) [Example 49, 3-(5-(((cis-2-Hydroxycyclohexyl)amino)methyl)-1-oxoisoindolin-2-yl)piperidine-2,6-dione]
78%	0.064 µM	71%	0.032 µM	O=C1CCC(N2Cc3cc(CN[C@H]4CCCc5ccccc54)ccc3C2=O)C(=O)N1 (stereo partly drawn) [Example 43, 3-(1-oxo-5-((((S)-1,2,3,4-tetrahydronaphthalen-1-yl)amino)methyl)isoindolin-2-yl)piperidine-2,6-dione]
